Results on 1 compound are retold here after US12552938B2, “Deuterated fluorophores” (HOWARD HUGHES MEDICAL INSTITUTE, priority 2018, dated 2026).

Format in all cases: physicochemical
Series [1] can be described thus: relative singlet oxygen quantum yield of free dyes. Conditions: free dye.
Series [2] is described as follows: spectral properties of free dyes (absorbance, fluorescence emission, ε, Φ, intrinsic brightness). As to conditions: free dye; 10 mM HEPES pH 7.3.
A short description of series [3]: photobleaching of free dyes in vitro.

In the case of `[2H]C1([2H])N(c2ccc3c(-c4ccccc4C(=O)[O-])c4ccc(=[N+]5C([2H])([2H])C([2H])([2H])C5([2H])[2H])cc-4oc3c2)C([2H])([2H])C1([2H])[2H]` [Compound 16, 2-(3,6-Bis(azetidin-1-yl-d6)xanthylium-9-yl)benzoate], in series [1], the “singlet oxygen (1O2) quantum yield compared to nondeuterated parent” value was “significantly lower”. In series [2], the “extinction coefficient (ε) compared to nondeuterated parent” value was “no improvement” and the “fluorescence quantum yield (Φ) compared to nondeuterated parent” value is recorded as “no improvement”. Moreover, the “photobleaching / in vitro photostability compared to nondeuterated parent” value in series [3] (free dye, 10 mM HEPES pH 7.3) is on record as “no improvement”. For the same compound, the “blue-shift of fluorescence emission during photobleaching due to dealkylation” value in series [3] (spectra taken periodically during photobleaching) stood at 4 nm.
